Assay results taken from patent publication US11807835B2, “Detergent compositions containing a stabilized enzyme by phosphonates” (ECOLAB USA INC., priority 2016, dated 2023).

Legend:
[1] = system: enzyme (protease, amylase, lipase); experiment: Overall effects of phosphonates on enzyme activity (Table 3); assay type: biochemical; settings: overall effect of the phosphonate on enzyme activity in the detergent use solution
Protocol: (§1) The enzyme activities in the detergents with different phosphonate levels were tested at 4000 ppm in 5 grains per gallon (GPG) water at 120° F. with various time points collected up to 4 hours, after a use solution was generated from the detergent composition. During the tests, the samples at different time points were collected and immediately frozen in an acetone/dry ice bath and stored in −80° C. before the activity of the enzyme was evaluated. For the use of such an assay, t=0 min was the reference point for 100% enzyme activity.
(§2) Assays of enzyme activity in formulations (% retention) were conducted to simulate a presoak condition in a beaker using the chemistry, temperature, and pH conditions relevant to manual warewash or presoak applications. Enzyme activity is an indicator of the stability of the enzyme in the detergent, specifically in an aqueous use solution within a sump (which is under conditions of high pH, temperature and dilution).
The relative enzyme activities in a use solution of the tested detergent compositions containing a different phosphonate at different concentrations over a period time are listed in Table 4A-Table 4E, Table 5A-Table 5E, and Table 6A-Table 6F.

lipase = experiment: Lipase activity retention in detergent use solution (4000 ppm, 5 GPG water; p-nitrophenyl valerate, TRIS buffer pH 8.0); assay type: biochemical; settings: for Relative Lipase Enzyme Activity in a Use Solution of the All Ash Detergent Composition: Table 6F, 120º F.; for Relative Lipase Enzyme Activity: base formula
Protocol: as §1, with “activities in the detergents with different phosphonate levels were tested at 4000 ppm in 5 grains per gallon (GPG) water at 120° F. with various time points” left out
as §2
Enzyme activity under presoak or manual warewash conditions was traced quantitatively using a standard protease assay. Samples were prepared under bench top conditions, whereby the use solution from a detergent composition or detergent was obtained and maintained at a presoak or manual warewash temperature in a stirring water bath. After the time course for assessing enzyme stability is initiated, aliquots were taken at various time points and flash-frozen. A time=0 sample was prepared for each series by dissolving the detergent formulation at room temperature, mixing thoroughly, and flash freezing. Samples were thawed and diluted as necessary in an assay buffer usually for use in the protease assay. A glycine buffer at pH 9.0 is used here. The assay monitored the direct reaction of the protease on a small, commercially available peptidyl substrate, with liberation of the product providing correlation to the active enzyme content. The product was detected using a plate reader with an appreciable dynamic range (upper absorbance limit of the instrument >3.5). Enzyme activity levels were assessed relative to a calibration curve with average values for replicate tests used to map protease stability under presoak or manual warewash use conditions. Enzyme retention at each time point was calculated as the % enzyme activity relative to the time=0 sample.
The analysis by lipase and amylase assay was conducted similarly, except with a different substrate and buffers. For lipase activity, the substrate is p-nitrophenyl valerate, and for amylase, the substrate is an ethylidene substrate (EPS). The buffer used in lipase assay is TRIS (Tris(hydroxymethyl)aminomethane) buffer at pH 8.0, and in amylase assay HEPES (4-(2-hydroxyethyl)-1-piperazineethanesulfonic acid) buffer at pH 8.0.

Q: With `O=P(O)(O)CN(CP(=O)(O)O)CP(=O)(O)O` [ATMP, Aminotri (methylene phosphonic acid)] as the compound, how does the “Stability (effects on enzyme activity)” value [1] read?
A: Yes

Q: And the “Relative Lipase Enzyme Activity in a Use Solution of the All Ash Detergent Composition” value (lipase; all ash formula, phosphonate 0.3 wt-%, time 0 min)?
A: 100.00%

Q: And the “Relative Lipase Enzyme Activity in a Use Solution of the All Ash Detergent Composition” value (lipase; all ash formula, phosphonate 0.3 wt-%, time 5 min)?
A: 61.64%

Q: And the “Relative Lipase Enzyme Activity in a Use Solution of the All Ash Detergent Composition” value (lipase; all ash formula, phosphonate 0.3 wt-%, time 10 min)?
A: 63.66%

Q: What about the “Relative Lipase Enzyme Activity in a Use Solution of the All Ash Detergent Composition” value (lipase; all ash formula, phosphonate 0.3 wt-%, time 20 min) of the same compound?
A: 54.08%

Q: And the “Relative Lipase Enzyme Activity in a Use Solution of the All Ash Detergent Composition” value (lipase; all ash formula, phosphonate 0.3 wt-%, time 40 min)?
A: 41.20%

Q: And the “Relative Lipase Enzyme Activity in a Use Solution of the All Ash Detergent Composition” value (lipase; all ash formula, phosphonate 0.3 wt-%, time 60 min)?
A: 36.19%

Q: And the “Relative Lipase Enzyme Activity in a Use Solution of the All Ash Detergent Composition” value (lipase; all ash formula, phosphonate 0.3 wt-%, time 90 min)?
A: 30.66%

Q: What about the “Relative Lipase Enzyme Activity in a Use Solution of the All Ash Detergent Composition” value (lipase; all ash formula, phosphonate 0.3 wt-%, time 120 min) of the same compound?
A: 19.17%

Q: And the “Relative Lipase Enzyme Activity in a Use Solution of the All Ash Detergent Composition” value (lipase; all ash formula, phosphonate 0.3 wt-%, time 150 min)?
A: 23.54%

Q: What about the “Relative Lipase Enzyme Activity in a Use Solution of the All Ash Detergent Composition” value (lipase; all ash formula, phosphonate 0.3 wt-%, time 180 min) of the same compound?
A: 14.43%

Q: What about the “Relative Lipase Enzyme Activity in a Use Solution of the All Ash Detergent Composition” value (lipase; all ash formula, phosphonate 0.3 wt-%, time 210 min) of the same compound?
A: 13.63%

Q: And the “Relative Lipase Enzyme Activity in a Use Solution of the All Ash Detergent Composition” value (lipase; all ash formula, phosphonate 0.3 wt-%, time 240 min)?
A: 12.97%

Q: And the “lipase stability in all ash formula” value (lipase; all ash formula, versus same composition with PBTC or HEDP without amine(s), FIG. 6G)?
A: more stable

Q: And the “Relative Lipase Enzyme Activity” value (lipase; phosphonate 0.3 wt-%, use solution at 120° F., time 0 min)?
A: 100.00%

Q: And the “Relative Lipase Enzyme Activity” value (lipase; phosphonate 0.3 wt-%, use solution at 120° F., time 5 min)?
A: 79.77%

Q: And the “Relative Lipase Enzyme Activity” value (lipase; phosphonate 0.3 wt-%, use solution at 120° F., time 10 min)?
A: 71.10%

Q: What about the “Relative Lipase Enzyme Activity” value (lipase; phosphonate 0.3 wt-%, use solution at 120° F., time 20 min) of the same compound?
A: 62.47%

Q: And the “Relative Lipase Enzyme Activity” value (lipase; phosphonate 0.3 wt-%, use solution at 120° F., time 40 min)?
A: 39.28%

Q: What about the “Relative Lipase Enzyme Activity” value (lipase; phosphonate 0.3 wt-%, use solution at 120° F., time 60 min) of the same compound?
A: 34.01%

Q: And the “Relative Lipase Enzyme Activity” value (lipase; phosphonate 0.3 wt-%, use solution at 120° F., time 90 min)?
A: 26.70%

Q: And the “Relative Lipase Enzyme Activity” value (lipase; phosphonate 0.3 wt-%, use solution at 120° F., time 120 min)?
A: 22.13%

Q: And the “Relative Lipase Enzyme Activity” value (lipase; phosphonate 0.3 wt-%, use solution at 120° F., time 150 min)?
A: 19.07%

Q: And the “Relative Lipase Enzyme Activity” value (lipase; phosphonate 0.3 wt-%, use solution at 120° F., time 180 min)?
A: 17.48%

Q: What about the “Relative Lipase Enzyme Activity” value (lipase; phosphonate 0.3 wt-%, use solution at 120° F., time 210 min) of the same compound?
A: 15.49%

Q: And the “Relative Lipase Enzyme Activity” value (lipase; phosphonate 0.3 wt-%, use solution at 120° F., time 240 min)?
A: 14.68%

Q: And the “Relative Lipase Enzyme Activity” value (lipase; phosphonate 0.6 wt-%, use solution at 120º F., time 0 min)?
A: 100.00%

Q: What about the “Relative Lipase Enzyme Activity” value (lipase; phosphonate 0.6 wt-%, use solution at 120º F., time 5 min) of the same compound?
A: 93.26%

Q: What about the “Relative Lipase Enzyme Activity” value (lipase; phosphonate 0.6 wt-%, use solution at 120º F., time 10 min) of the same compound?
A: 87.80%

Q: What about the “Relative Lipase Enzyme Activity” value (lipase; phosphonate 0.6 wt-%, use solution at 120º F., time 20 min) of the same compound?
A: 81.36%

Q: And the “Relative Lipase Enzyme Activity” value (lipase; phosphonate 0.6 wt-%, use solution at 120º F., time 40 min)?
A: 60.03%

Q: And the “Relative Lipase Enzyme Activity” value (lipase; phosphonate 0.6 wt-%, use solution at 120º F., time 60 min)?
A: 56.12%

Q: What about the “Relative Lipase Enzyme Activity” value (lipase; phosphonate 0.6 wt-%, use solution at 120º F., time 90 min) of the same compound?
A: 49.58%

Q: What about the “Relative Lipase Enzyme Activity” value (lipase; phosphonate 0.6 wt-%, use solution at 120º F., time 120 min) of the same compound?
A: 42.20%

Q: And the “Relative Lipase Enzyme Activity” value (lipase; phosphonate 0.6 wt-%, use solution at 120º F., time 150 min)?
A: 37.91%

Q: And the “Relative Lipase Enzyme Activity” value (lipase; phosphonate 0.6 wt-%, use solution at 120º F., time 180 min)?
A: 33.77%

Q: And the “Relative Lipase Enzyme Activity” value (lipase; phosphonate 0.6 wt-%, use solution at 120º F., time 210 min)?
A: 32.19%

Q: What about the “Relative Lipase Enzyme Activity” value (lipase; phosphonate 0.6 wt-%, use solution at 120º F., time 240 min) of the same compound?
A: 29.80%

Q: What about the “Relative Lipase Enzyme Activity” value (lipase; phosphonate at 0.1% elemental phosphorus, at 120º F. or at room temperature (as titled), time 0 min) of the same compound?
A: 100.00%

Q: And the “Relative Lipase Enzyme Activity” value (lipase; phosphonate at 0.1% elemental phosphorus, at 120º F. or at room temperature (as titled), time 5 min)?
A: 82.14%

Q: And the “Relative Lipase Enzyme Activity” value (lipase; phosphonate at 0.1% elemental phosphorus, at 120º F. or at room temperature (as titled), time 10 min)?
A: 78.45%

Q: What about the “Relative Lipase Enzyme Activity” value (lipase; phosphonate at 0.1% elemental phosphorus, at 120º F. or at room temperature (as titled), time 20 min) of the same compound?
A: 64.87%

Q: What about the “Relative Lipase Enzyme Activity” value (lipase; phosphonate at 0.1% elemental phosphorus, at 120º F. or at room temperature (as titled), time 40 min) of the same compound?
A: 45.84%

Q: What about the “Relative Lipase Enzyme Activity” value (lipase; phosphonate at 0.1% elemental phosphorus, at 120º F. or at room temperature (as titled), time 60 min) of the same compound?
A: 37.66%

Q: What about the “Relative Lipase Enzyme Activity” value (lipase; phosphonate at 0.1% elemental phosphorus, at 120º F. or at room temperature (as titled), time 90 min) of the same compound?
A: 30.16%

Q: And the “Relative Lipase Enzyme Activity” value (lipase; phosphonate at 0.1% elemental phosphorus, at 120º F. or at room temperature (as titled), time 120 min)?
A: 25.91%

Q: What about the “Relative Lipase Enzyme Activity” value (lipase; phosphonate at 0.1% elemental phosphorus, at 120º F. or at room temperature (as titled), time 150 min) of the same compound?
A: 21.51%

Q: What about the “Relative Lipase Enzyme Activity” value (lipase; phosphonate at 0.1% elemental phosphorus, at 120º F. or at room temperature (as titled), time 180 min) of the same compound?
A: 15.43%

Q: And the “Relative Lipase Enzyme Activity” value (lipase; phosphonate at 0.1% elemental phosphorus, at 120º F. or at room temperature (as titled), time 210 min)?
A: 17.94%
